Results taken from patent US20220175974A1, “TARGETING COMPOUNDS FOR CANCERS SELECTED FROM ESOPHAGUS, PHARYNX AND LARYNX, LUNG, BRAIN, AND INTESTINES” (HQ MEDICAL NETHERLANDS B.V., priority 2019, published 2022).

Key:
[1] = clearance of the cyanines in the human body; format: in vivo
Source text: (§1) The present targeting molecule is very selective and very specific in binding to necrotic cells. […] For the present invention four specific cyanines are selected, namely HQ4, HQ5, CW-800 and ZW-800. These molecules are found to have a high affinity towards the intracellular proteins, including tubulin and actin. […] As a result very low concentrations c.q. amounts of the present system may be used to provide advantageous effects thereof. It is noted that apoptosis specific probes, in contrast to necrosis specific probes will also target healthy tissue as apoptosis is involved in normal tissue turnover. The present cyanine is attached to a second entity, namely a chelator, wherein the chelator is selected from DOTA and NOTA (DOTA: 1,4,7,10-Tetraazacyclododecane-1,4,7,10-tetraacetic acid and NOTA: 1,4,7-triazacyclononane-N,N′,N″-triacetic acid). Attached to the chelator is attached a third entity, namely a radionuclide selected from Cu, In, Gd, Ga, Lu, Y, I, and Zr. The present system is found to be effective as a medicament, also referred to as drug, for cancers selected from esophagus, pharynx and larynx, lung, brain, and intestines. These cancers are considered to relate to and being associated with the Central Nervous system, the respiratory tract, the gastro-intestinal tract, […], and head-neck region, respectively. […]

[2] = system: intracellular proteins, including tubulin and actin; test: binding of cyanine targeting molecules to intracellular proteins
Source text: as §1

affinity towards the intracellular proteins [2]: high affinity
SMILES: CC1(C)C(/C=C/C2=C(Oc3ccc(S(=O)(=O)O)cc3)C(=C/C=C3/N(CCCCS(=O)(=O)O)c4ccc(S(=O)(=O)[O-])cc4C3(C)C)/CCC2)=[N+](CCCCCC(=O)O)c2ccc(S(=O)(=O)O)cc21 [CW-800]
clearance in the human body [1]: cleared in the human body specifically well
